Reference: patent publication US11390900B2, “Antimicrobial cartridges and processes for multiplexed antimicrobial susceptibility testing” (priority 2018, dated 2022)
Like-named read-outs stand apart in the source and are kept apart here.

Assays:
S. aureus 29213 = conditions: MIC range, cited from earlier work
patient sample microbes [1] = experiment: AST MIC results for antimicrobial panel 1 (384-well panel from Master Plate vs 96-well panel); type: cell-based; conditions: for MICs obtained from panel made from Master Plate: antimicrobial panel 1, 384 well patient cartridge; for MICs obtained from 96-well Antibiotic Panel: antimicrobial panel 1, standard 96 well AST assay plate
Text: (§1) An assay setup comprises preparation of patient (target) cartridge by dispensing antimicrobials were from the master cartridge or intermediate serial dilution cartridges into one or more 384 reservoir patient cartridge, each antimicrobial in about 7 serial dilutions in triplicate, and covering the dynamic range of each antimicrobial that is known to be effective and therefore should be reported. The dilution range included the expected minimum inhibitory concentration (MIC) for each antimicrobial. But most importantly, dilution ranges, that is, antimicrobial concentrations beyond the range known to be effective are included in the patient cartridge as per the present invention.
(§2) The remaining reservoirs of the 384 well patient cartridge are utilized for setting up test controls: a no-antimicrobial control (negative control) was included for each antimicrobial compound; and a positive control was included for each antimicrobial set, where a microorganism that is not susceptible to the antimicrobial was added to the well. Each control set was also dispensed at least in duplicate per 384 well cartridge. Additional test controls may be included as deemed necessary by one of skill in the art. Equal amount of a patient sample was dispensed to each of the wells in the cartridge, except in the wells designated for no-sample control, if included. The patient cartridge was ready for determination of susceptibility of microbes from the patient sample to the twelve antimicrobials at the range of concentrations applied, simultaneously. Multiple such plates can be set up in parallel for testing samples from multiple patients, each patient sample per plate. An AST assay was performed on the prepared patient cartridges.
(§3) First, three master plates are loaded by the user onto chilled plate holders (set to 4° C.). These consist of one Broad Spectrum, one Gram-Positive and one Gram-Negative antibiotic plate. Next the bulk reagents and pipette tips are loaded on tube rack. Master and bulk reagent pipette tips and sample dilution tray are reloaded every 12 samples. For every set of tests, up to four Patient Samples in tubes and up to four 384-well Target Plates (Patient plate) are loaded.
(§4) Antibiotics are transferred from Broad Spectrum Master Plate to Target Plate(s). Antibiotics are “stamped” according to FIG. 10A-B. The inoculator tips should be placed back in the same position of the Broad Spectrum Tip Box for use on subsequent target plates, but should only be used for same antibiotics to avoid cross contamination.
(§5) Antimicrobials are transferred from Gram-Positive OR Gram-Negative Master Plate to Target Plate(s) and the antibiotics are “stamped” according to FIG. 11A-B. The inoculator should place tips back in the same position of the correct tip box for use on subsequent target plates. Good care is taken such that any cross contamination is prevented.
(§6) Using new tips from the Sample Tip Box, 50 μL of diluted patient sample are transferred into Target Plate according to Table Four, this is done with a “jet dispense” to avoid cross contamination. After the Patient Sample has been transferred to each well on the Target Plate, the tips should be disposed of to avoid cross contamination. The above steps are repeated for each additional Patient Sample and Target Plate.
(§7) Shown in Table 6 and Table 7, MIC results for antimicrobial panels 1 and 2 respectively using a master cartridge format and a 384 well patient cartridge (column 3) agrees reliably with that run by standard 96 well AST assay plate (right hand column).

patient sample microbes [2] = conditions: antimicrobial panel 1, MIC range; cited from earlier work
E. coli 25922 = conditions: MIC range, E. coli 25922, Gram negative panel; cited from earlier work
E. faecalis 29212 = conditions: MIC range, cited from earlier work
patient sample microbes [3] = conditions: antimicrobial panel 2, MIC range; cited from earlier work
patient sample microbes [4] = experiment: AST MIC results for antimicrobial panel 2 (384-well panel from Master Plate vs 96-well panel); type: cell-based; conditions: for MICs obtained from panel made from Master Plate: antimicrobial panel 2, 384 well patient cartridge; for MICs obtained from 96-well Antibiotic Panel: antimicrobial panel 2, standard 96 well AST assay plate
Text: as §1, §2, §3, §4, §5, §6, §7

[5] = S. aureus 29213, Gram negative panel
[6] = S. aureus 29213, Gram positive panel
[7] = E. faecalis 29212, Gram positive panel

Q: Which results are given for NCC[C@H](O)C(=O)N[C@@H]1C[C@H](N)[C@@H](O[C@H]2O[C@H](CN)[C@@H](O)[C@H](O)[C@H]2O)[C@H](O)[C@H]1O[C@H]1O[C@H](CO)[C@@H](O)[C@H](N)[C@H]1O [Amikacin]?
A: CLSI-Defined QC Range (S. aureus 29213; [5]): 1 to 4 µg/mL; MICs obtained from panel made from Master Plate (patient sample microbes [1]): 4 µg/mL; MICs obtained from 96-well Antibiotic Panel (patient sample microbes [1]): 4 µg/mL; Quality Control Range (patient sample microbes [2]): 0.5-4

Q: Which “CLSI-Defined QC Range” value (S. aureus 29213; [6]) does the source give for CC[C@H]1OC(=O)[C@H](C)[C@@H](O[C@H]2C[C@@](C)(OC)[C@@H](O)[C@H](C)O2)[C@H](C)[C@@H](O[C@@H]2O[C@H](C)C[C@H](N(C)C)[C@H]2O)[C@](C)(O)C[C@@H](C)CN(C)[C@H](C)[C@@H](O)[C@]1(C)O [Azithromycin] here?
A: 0.5 to 2 µg/mL

Q: With Cc1nnc(SCC2=C(C(=O)O)N3C(=O)[C@@H](NC(=O)Cn4cnnn4)[C@H]3SC2)s1 [Cefazolin] as the compound, how does the “CLSI-Defined QC Range” value (E. coli 25922) read?
A: 1 to 4 µg/mL

Q: Which results are given for CO/N=C(\C(=O)N[C@@H]1C(=O)N2C(C(=O)[O-])=C(C[N+]3(C)CCCC3)CS[C@H]12)c1csc(N)n1 [Cefepime]?
A: CLSI-Defined QC Range (S. aureus 29213; [5]): 1 to 4 µg/mL; MICs obtained from panel made from Master Plate (patient sample microbes [1]): ≤ 0.25 µg/mL; MICs obtained from 96-well Antibiotic Panel (patient sample microbes [1]): ≤ 0.03 µg/mL; Quality Control Range (patient sample microbes [2]): 0.015-0.12

Q: For CO/N=C(\C(=O)N[C@@H]1C(=O)N2C(C(=O)O)=C(COC(C)=O)CS[C@H]12)c1csc(N)n1 [Cefotaxime], which “CLSI-Defined QC Range” value (S. aureus 29213; [5]) is on record?
A: 1 to 4 µg/mL

Q: For CO/N=C(\C(=O)N[C@@H]1C(=O)N2C(C(=O)O)=C(COC(N)=O)CS[C@H]12)c1ccco1 [Cefuroxime], which “CLSI-Defined QC Range” value (E. coli 25922) is on record?
A: 2 to 8 µg/mL

Q: With Nc1nc(-n2cc(C(=O)O)c(=O)c3cc(F)c(N4CC(O)C4)c(Cl)c32)c(F)cc1F [Delafloxacin] as the compound, how does the “CLSI-Defined QC Range” value (E. faecalis 29212; [7]) read?
A: 0.016 to 0.12 µg/mL

Q: Which “CLSI-Defined QC Range” value (E. coli 25922) does the source give for CN(C)[C@@H]1C(O)=C(C(N)=O)C(=O)[C@@]2(O)C(O)=C3C(=O)c4c(O)c(NC(=O)CN5CCCC5)cc(F)c4C[C@H]3C[C@@H]12 [Eravacycline] here?
A: 0.03 to 0.12 µg/mL

Q: And the “CLSI-Defined QC Range” value (E. faecalis 29212; [7])?
A: 0.016 to 0.06 µg/mL

Q: Which “CLSI-Defined QC Range” value (S. aureus 29213; [5]) does the source give for C[C@@H](O)[C@H]1C(=O)N2C(C(=O)O)=C(S[C@@H]3CN[C@H](C(=O)Nc4cccc(C(=O)O)c4)C3)[C@H](C)[C@H]12 [Ertapenem] here?
A: 0.06 to 0.25 µg/mL

Q: For CC[C@H]1OC(=O)[C@H](C)[C@@H](O[C@H]2C[C@@](C)(OC)[C@@H](O)[C@H](C)O2)[C@H](C)[C@@H](O[C@@H]2O[C@H](C)C[C@H](N(C)C)[C@H]2O)[C@](C)(O)C[C@@H](C)C(=O)[C@H](C)[C@@H](O)[C@]1(C)O [Erythromycin], which “CLSI-Defined QC Range” value (E. faecalis 29212; [7]) is on record?
A: 1 to 4 µg/mL

Q: For CC(=O)NC[C@H]1CN(c2ccc(N3CCOCC3)c(F)c2)C(=O)O1 [Linezolid], which “CLSI-Defined QC Range” value (S. aureus 29213; [6]) is on record?
A: 1 to 4 µg/mL

Q: And the “Quality Control Range” value (patient sample microbes [3])?
A: 1-4

Q: What about the MICs obtained from panel made from Master Plate (patient sample microbes [4]) of the same compound?
A: 2 µg/mL

Q: And the MICs obtained from 96-well Antibiotic Panel (patient sample microbes [4])?
A: 2 µg/mL

Q: Which “CLSI-Defined QC Range” value (E. faecalis 29212; E. faecalis 29212, Gram negative panel) does the source give for C[C@@H](O)[C@H]1C(=O)N2C(C(=O)O)=C(S[C@@H]3CN[C@H](C(=O)N(C)C)C3)[C@H](C)[C@H]12 [Meropenem] here?
A: 2 to 8 µg/mL

Q: With Cc1onc(-c2ccccc2)c1C(=O)N[C@@H]1C(=O)N2[C@@H]1SC(C)(C)[C@@H]2C(=O)O [Oxacillin] as the compound, how does the “CLSI-Defined QC Range” value (S. aureus 29213; [6]) read?
A: 0.12 to 0.5 µg/mL

Q: What about the “Quality Control Range” value (patient sample microbes [3]) of the same compound?
A: 0.12-0.5

Q: What about the MICs obtained from panel made from Master Plate (patient sample microbes [4]) of the same compound?
A: 0.5 µg/mL

Q: And the MICs obtained from 96-well Antibiotic Panel (patient sample microbes [4])?
A: 0.5 µg/mL

Q: Which results are given for CO[C@H]1/C=C/O[C@@]2(C)Oc3c(C)c(O)c4c(O)c(c(/C=N/N5CCN(C)CC5)c(O)c4c3C2=O)NC(=O)/C(C)=C\C=C\[C@H](C)[C@H](O)[C@@H](C)[C@@H](O)[C@@H](C)[C@H](OC(C)=O)[C@@H]1C [Rifampin]?
A: Quality Control Range (patient sample microbes [3]): 0.004-0.015; CLSI-Defined QC Range (E. faecalis 29212; [7]): 0.5 to 4 µg/mL; MICs obtained from panel made from Master Plate (patient sample microbes [4]): ≤ 0.25 µg/mL; MICs obtained from 96-well Antibiotic Panel (patient sample microbes [4]): 0.004 µg/mL

Q: Which “Quality Control Range” value (patient sample microbes [3]) does the source give for Cn1nnc(-c2ccc(-c3ccc(N4C[C@H](CO)OC4=O)cc3F)cn2)n1 [Tedizolid] here?
A: 0.25-1

Q: What about the MICs obtained from panel made from Master Plate (patient sample microbes [4]) of the same compound?
A: 0.25 µg/mL

Q: And the MICs obtained from 96-well Antibiotic Panel (patient sample microbes [4])?
A: 0.5 µg/mL

Q: Which “CLSI-Defined QC Range” value (S. aureus 29213; [6]) does the source give for COc1cc(Cc2cnc(N)nc2N)cc(OC)c1OC [Trimethoprim] here?
A: 1 to 4 µg/mL

Q: For Penicillin, which “CLSI-Defined QC Range” value (S. aureus 29213; [6]) is on record?
A: 0.25 to 2 µg/mL
